This test relates to clathrin-dependent pathway or macro-pinocytosis pathway. Put plainly: Effect of endocytosis pathway inhibitors on BTNP accumulation in cytoplasm in response to TTFields. The class given is cell-based. The following applies: specific inhibitors of clathrin-dependent or macro-pinocytosis pathway. An excerpt: Nanoparticles (NPs) internalization into cells is known to be dependent on particle size and its zeta potential. NPs under 200 nm can be engulfed by cancer cells through clathrin-dependent pathway or macro-pinocytosis pathway. […] The data herein evidences that increased membrane permeability by TTFields can induce BTNP accumulation in cytoplasm of cancer cells.

Turning to `N=C(N)NC(=O)c1nc(Cl)c(N)nc1N` [amiloride], the “accumulation of BTNPs in cytoplasm in response to TTFields” value was “did not modulate”.
The entry for `CN(C)CCCN1c2ccccc2Sc2ccc(Cl)cc21` [chlorpromazine] is “did not modulate”; for `C=C1[C@@H](C)[C@H]2[C@H](Cc3ccccc3)NC(=O)[C@]23[C@H](OC(C)=O)/C=C/[C@@](C)(O)C(=O)[C@@H](C)C/C=C/[C@H]3[C@@H]1O` [cytochalasin D] it is “did not modulate”.
